Assay results taken from patent US20230293512A1, “S100 PROTEINS AS NOVEL THERAPEUTIC TARGETS IN MYELOPROLIFERATIVE NEOPLASMS” (ERASMUS UNIVERSITY MEDICAL CENTER ROTTERDAM, priority 2020, published 2023).

Tests used:
S100A8 and S100A9 = conditions: Stewart et al, Bone Marrow Res. 2018; cited from earlier work
[1] = tested on: mice developing JAK2(V617F)-mediated myelofibrosis; assay: Tasquinimod treatment of mice with JAK2(V617F)-induced myelofibrosis; type: in vivo; conditions: JAK2(V617F)-transplanted mice, 30 mg/kg/day in drinking water; for MPN-specific leukocytosis (white blood cell counts from peripheral blood) / splenomegaly (spleen weights normalized to mouse weight) / bone marrow fibrosis grade (reticulin grade): 30 mg/kg/day; for bone marrow fibrosis grade (reticulin grade): vehicle-treated mice developed grade 2-3 fibrosis and osteosclerosis
Description: Murine organs were fixed in 4% paraformaldehyde for 24 hours and transferred to 70% ethanol. Femurs were decalcified in 10% EDTA/Tris-HCl (pH 6.6) solution for 72 hours, dehydrated and paraffin embedded. H&E and reticulin staining were performed on 4 μm sections according to established routine protocols.
Blood was periodically collected from mice via submandibular bleeds into Microtainer tubes coated with K2EDTA (Becton Dickinson, NJ, USA) and complete blood counts were performed on a Horiba Scil Vet abc Plus hematology system.
For tasquinimod studies, WT recipient mice (n=7-10/group) were lethally irradiated (10.5 Gy) and received ckit^+ cells transduced with […] or JAK2^(WT) retroviral virus. Tasquinimod treatment (ABR-215050, Biorbyt) was administered via drinking water at 30 mg/kg/day dissolved in 3% sucrose in autoclaved water. Tasquinimod was first dissolved in DMSO and mixed with 3% sucrose, 2% PEG300 (Sigma) in water. Vehicle-treated groups received DMSO-, PEG300-treated water with 3% sucrose. Drinking bottles were renewed twice a week. Treatment was started at 5 weeks post-transplant until 10 post-transplant, and resumed at 13 weeks post-transplant until sacrifice at 20 weeks post-transplant. Mice were randomly assigned to transplant and treatment groups.
To further validate the role of S100A8/S100A9 in the fibrotic initiation and progression, the inventors sought to use a S100A9-inhibitor known as tasquinimod (ABR-215050) in mice developing JAK2(V617F)-mediated myelofibrosis. […] Tasquinimod treatment was administered via drinking water starting at 5 weeks post-transplant, until sacrifice at 20 weeks post-transplant with a treatment break at 10 weeks post-transplant to minimize deleterious effects on normal granulocyte function (FIG. 4A).

S100A9 protein = target: T1, S100A9 protein (Homo sapiens, UniProt P06702); conditions: cited from earlier work
T1 sequence (P06702 1-114): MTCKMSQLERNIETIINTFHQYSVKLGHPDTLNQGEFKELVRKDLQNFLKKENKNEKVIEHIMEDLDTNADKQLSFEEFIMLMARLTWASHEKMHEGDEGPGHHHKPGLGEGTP

[2] = weeks 5-10 and 13-20 post-transplant, vs vehicle
[3] = weeks 5-10 and 13-20 post-transplant, vs vehicle, listed as Tasquinimod

SMILES | S100A8 and S100A9 mRNA and protein levels (S100A8 and S100A9) | thrombocytosis (platelet counts in peripheral blood) [1, 2] | MPN-specific leukocytosis (white blood cell counts from peripheral blood) [1, 2] | splenomegaly (spleen weights normalized to mouse weight) [1, 2] | MPN-specific leukocytosis (white blood cell counts from peripheral blood) [1, 3] | splenomegaly (spleen weights normalized to mouse weight) [1, 3] | bone marrow fibrosis grade (reticulin grade) [1] | bone marrow fibrosis grade (reticulin grade) ([1]; listed as Tasquinimod) | binding to S100A9 protein and effect on its interaction with TLR4 and RAGE receptors (S100A9 protein)
Cc1sc2c(c1C)C(c1ccc(Cl)cc1)=N[C@@H](CC(=O)OC(C)(C)C)c1nnc(C)n1-2 [JQ1] | suppress S100A8 and S100A9 mRNA and protein levels |  |  |  |  |  |  |  | 
COc1cccc2c1c(O)c(C(=O)N(C)c1ccc(C(F)(F)F)cc1)c(=O)n2C [tasquinimod, 4-hydroxy-5-methoxy-N,1-dimethyl-2-oxo-N-[4-(trifluoromethyl)phenyl]-1,2-dihydroquinoline-3-carboxamide] |  | did not develop thrombocytosis | did not develop MPN-specific leukocytosis | completely normalized | normalizes splenomegaly and leukocytosis | normalizes splenomegaly | reduced fibrosis grade | reduces fibrosis in bone marrow | binds to S100A9 protein and impedes its interaction with TLR4 and RAGE receptors
